Consider 16 compounds from publication PMC12114297 (Molecules, 2025).

In assay [1] the test system is Staphylococcus aureus ATCC 25923. Nature of the assay: Agar well diffusion, S. aureus. The settings on record: for Antibacterial activity in words: agar well diffusion, particularly S. aureus; for zone of inhibition at 1000 µg/mL: Staphylococcus aureus, ATCC25923, 60 µL of 1 mg/mL per well, ZOI including the well (6 mm), ± SD, n = 3, ciprofloxacin disk 5 μg, read-out: Staphylococcus aureus ATCC 25923 ZOI. The assay is classed as cell-based. Here is the method: (§1) The antimicrobial potential of the synthesized coumarin–triazole–isatin hybrids was evaluated by the agar well diffusion method. The activity was tested against a variety of Gram-positive bacteria (Staphylococcus aureus ATCC 25923 and ATCC 902710, Staphylococcus epidermidis ATCC 12228, Streptococcus pyogenes ATCC 19615, Enterococcus faecalis ATCC 51299), Gram-negative bacteria (Escherichia coli ATCC 25922, Haemophilus influenzae ATCC 49766, Pseudomonas aeruginosa ATCC 27853, Salmonella typhi ATCC 14028, Neisseria meningitidis ATCC 13090, Neisseria gonorrhoeae ATCC 43069), and fungi (Candida albicans ATCC 60193 and ATCC 90028, Candida orientalis ATCC 6258). All microbial strains were obtained from Microbiologics (St.Cloud, MN, USA).
(§2) The test compounds were dissolved in DMSO to obtain stock solutions (1 mg/mL). Each compound (60 µL) was transferred into wells (6 mm in diameter) that were previously perforated into agar plates inoculated with microbial suspensions standardized to 0.5 McFarland for bacteria and 2 McFarland for Candida spp. DMSO was used as a negative control, while commercial antibiotic disks of novobiocin (5 μg), ampicillin (10 μg), and ciprofloxacin (5 μg) served as positive controls. Antimicrobial activity was assessed by measuring the diameter of zones of inhibition (ZOIs) in millimeters. All tests were conducted in triplicate.

Assay [2] concerns Staphylococcus epidermidis ATCC 12228. Nature of the assay: Agar well diffusion, S. epidermidis. In kind it is cell-based. The following applies: ATCC12228, read-out: Staphylococcus epidermidis ATCC 12228 ZOI, 60 µL of 1 mg/mL per well, ZOI including the well (6 mm), ± SD, n = 3, ciprofloxacin disk 5 μg. How it is done:
as §1, §2

In assay [3] the target is T1, AChE from Electrophorus electricus (eeAChE) (Electrophorus electricus, UniProt O42275).
T1 construct: purchased Sigma-Aldrich (St. Louis, MO, USA)
T1 sequence (O42275 24-633): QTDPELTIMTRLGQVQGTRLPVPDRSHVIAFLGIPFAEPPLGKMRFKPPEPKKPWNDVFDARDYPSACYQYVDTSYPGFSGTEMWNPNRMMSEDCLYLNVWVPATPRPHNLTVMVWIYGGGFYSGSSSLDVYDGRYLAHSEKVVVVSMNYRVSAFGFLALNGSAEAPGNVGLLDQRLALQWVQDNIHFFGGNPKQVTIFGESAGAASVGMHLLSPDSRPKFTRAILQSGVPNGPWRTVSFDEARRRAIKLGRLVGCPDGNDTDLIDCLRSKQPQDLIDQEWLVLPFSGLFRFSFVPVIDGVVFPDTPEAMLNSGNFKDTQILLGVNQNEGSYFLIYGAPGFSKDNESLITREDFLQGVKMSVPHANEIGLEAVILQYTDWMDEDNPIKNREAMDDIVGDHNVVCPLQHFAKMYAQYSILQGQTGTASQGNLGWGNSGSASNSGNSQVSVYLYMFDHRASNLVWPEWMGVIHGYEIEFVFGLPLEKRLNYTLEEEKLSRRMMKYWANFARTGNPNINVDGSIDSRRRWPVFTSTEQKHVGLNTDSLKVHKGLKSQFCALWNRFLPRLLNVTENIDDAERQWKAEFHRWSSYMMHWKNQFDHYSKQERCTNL
Nature of the assay: biochemical. The following applies: for inhibition at 20 µM: read-out: AChE % of Inhibition (Conc. 20 μM).

Assay [4] has as its target T2, BChE from equine serum (eqBuChE) (Equus caballus, UniProt P81908).
T2 construct: BChE from equine serum (BChE, EC 3.1.1.8); purchased Sigma-Aldrich (St. Louis, MO, USA); host or cells: equine serum
Description: biochemical. The following applies: for IC50 / inhibition at 20 µM / BChE % of Inhibition (Conc. 20 μM): average ± standard error (n = 3); for inhibition at 20 µM: read-out: BChE % of Inhibition (Conc. 20 μM), 20 μM. Here is the method:
The in vitro cholinesterase inhibitory activity of the synthesized hybrid molecules was evaluated using a modified Ellman’s assay, optimized for 96-well microplate application. AChE from Electrophorus electricus (AChE, EC 3.1.1.7), BChE from equine serum (BChE, EC 3.1.1.8), acetylthiocholine iodide (ATCh), butyrylthiocholine iodide (BTCh), and 5,5′-dithiobis(2-nitrobenzoic acid) were purchased from Sigma-Aldrich (St. Louis, MO, USA) and used without further purification.
Test compounds were initially dissolved in dimethylsulphoxide (DMSO) to yield 1 mM stock solutions and subsequently diluted with 0.1 M phosphate buffer (pH 8.0) to prepare working solutions.
For the assay, 20 µL of compound solution was added to 140 µL of 0.1 M phosphate buffer (pH 8.0) in each well, followed by 20 µL of enzyme solution (AChE or BuChE, 100 U/L). After incubation at room temperature for 10 min, the reaction was initiated by adding 10 µL of DTNB (0.01 M) and 10 µL of substrate (ATCh or BTCh, 0.015 M). […] The percentage inhibition of enzyme activity was calculated using the following equation:(1) % Inhibition=Absorbance of control−Apsorbance of sample/Absorbance of control×100 where the absorbance of the control represents the maximum enzyme activity (without inhibition), and the absorbance of the sample corresponds to the enzyme activity in the presence of the tested compound. Appropriate blanks were included to account for background absorbance and to correct for any intrinsic color of the tested compounds.
All experiments were performed in triplicate.

The structures appear in SMILES notation. Bounds are passed on as bounds.

T2 sequence (P81908 whole entry): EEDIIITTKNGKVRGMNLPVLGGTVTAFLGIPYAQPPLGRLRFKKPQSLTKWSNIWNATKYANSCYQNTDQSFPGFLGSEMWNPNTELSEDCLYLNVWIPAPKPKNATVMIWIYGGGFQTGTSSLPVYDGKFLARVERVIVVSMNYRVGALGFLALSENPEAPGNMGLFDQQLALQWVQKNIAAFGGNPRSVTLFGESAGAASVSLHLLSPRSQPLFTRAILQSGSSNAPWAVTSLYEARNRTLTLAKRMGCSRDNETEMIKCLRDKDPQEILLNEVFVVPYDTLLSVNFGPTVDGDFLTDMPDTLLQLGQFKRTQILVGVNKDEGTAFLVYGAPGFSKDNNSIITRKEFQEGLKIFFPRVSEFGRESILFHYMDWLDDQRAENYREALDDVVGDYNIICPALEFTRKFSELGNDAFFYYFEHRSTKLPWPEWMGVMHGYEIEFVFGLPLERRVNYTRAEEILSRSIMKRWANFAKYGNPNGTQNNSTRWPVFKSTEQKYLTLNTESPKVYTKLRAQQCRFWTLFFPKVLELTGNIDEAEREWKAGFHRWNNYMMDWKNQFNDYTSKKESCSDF

Consider `O=C1C(=O)N(Cc2cn(CCOc3cc(=O)oc4ccccc34)nn2)c2ccccc21` [Compound 6a1, 1-((1-(2-((2-oxo-2H-chromen-4-yl)oxy)ethyl)-1H-1,2,3-triazol-4-yl)methyl)indoline-2,3-dione], for which the “Antibacterial activity in words” value in assay [1] is given as “failed to exhibit significant activity”. Further, the zone of inhibition at 1000 µg/mL in assay [2] worked out at 6.08 ± 1.19 mm. Also, the values for the inhibition at 20 µM in assay [3] and in assay [4] were 29.3 ± 2.14% and 72.8 ± 2.17%, respectively. The compound also came in with an IC50 in assay [4] of 6.08 ± 1.19 µM.

On to `O=C1C(=O)N(Cc2cn(CCOc3cc(=O)oc4ccccc34)nn2)c2ccc(F)cc21` [Compound 6a2, 5-fluoro-1-((1-(2-((2-oxo-2H-chromen-4-yl)oxy)ethyl)-1H-1,2,3-triazol-4-yl)methyl)indoline-2,3-dione], for which, in assay [1], the “Antibacterial activity in words” value is “failed to exhibit significant activity”. The zone of inhibition at 1000 µg/mL in assay [2] was 9.16 ± 1.69 mm. In addition, the inhibition at 20 µM in assay [3] stood at 11.8 ± 1.18%; in assay [4] it was 66.2 ± 5.18%. The IC50 in assay [4] came to 9.16 ± 1.69 µM.

Consider `O=C1C(=O)N(Cc2cn(CCOc3cc(=O)oc4ccccc34)nn2)c2ccc(Cl)cc21` [Compound 6a3, 5-chloro-1-((1-(2-((2-oxo-2H-chromen-4-yl)oxy)ethyl)-1H-1,2,3-triazol-4-yl)methyl)indoline-2,3-dione], for which, in assay [2], the zone of inhibition at 1000 µg/mL was 10.6 ± 1.13 mm. For the same compound, in assay [3], the inhibition at 20 µM was determined as 5.57 ± 1.19%. In addition, in assay [4], the IC50 worked out at 10.6 ± 1.13 µM and the inhibition at 20 µM was 62.6 ± 6.19%.

With `O=C1C(=O)N(Cc2cn(CCOc3cc(=O)oc4ccccc34)nn2)c2ccc(I)cc21` [Compound 6a5, 5-iodo-1-((1-(2-((2-oxo-2H-chromen-4-yl)oxy)ethyl)-1H-1,2,3-triazol-4-yl)methyl)indoline-2,3-dione], in assay [1], the “Antibacterial activity in words” value was “largely inactive”. The inhibition at 20 µM in assay [3] is 3.17 ± 0.26%; in assay [4] it was 40.9 ± 6.26%.

In the case of `O=C1C(=O)N(Cc2cn(CCOc3cc(=O)oc4ccccc34)nn2)c2ccc([N+](=O)[O-])cc21` [Compound 6a6, 5-nitro-1-((1-(2-((2-oxo-2H-chromen-4-yl)oxy)ethyl)-1H-1,2,3-triazol-4-yl)methyl)indoline-2,3-dione], the “Antibacterial activity in words” value in assay [1] is “largely inactive”. Moreover, the inhibition at 20 µM in assay [3] was 3.11 ± 0.44%. In assay [4], the “BChE % of Inhibition (Conc. 20 μM)” value is 4.89 ± 0.74% and the inhibition at 20 µM was < 6%.

In the case of `Cc1ccc2c(c1)C(=O)C(=O)N2Cc1cn(CCOc2cc(=O)oc3ccccc23)nn1` [Compound 6a7, 5-methyl-1-((1-(2-((2-oxo-2H-chromen-4-yl)oxy)ethyl)-1H-1,2,3-triazol-4-yl)methyl)indoline-2,3-dione], the “Antibacterial activity in words” value in assay [1] was “largely inactive”. Besides, the inhibition at 20 µM in assay [3] was found to be 22.8 ± 3.66%. In addition, the “BChE % of Inhibition (Conc. 20 μM)” value in assay [4] is listed as 2.91 ± 0.15%.

`O=C1C(=O)N(Cc2cn(CCCOc3cc(=O)oc4ccccc34)nn2)c2ccccc21` [Compound 6b1, 1-((1-(3-((2-oxo-2H-chromen-4-yl)oxy)propyl)-1H-1,2,3-triazol-4-yl)methyl)indoline-2,3-dione]: in assay [2], the zone of inhibition at 1000 µg/mL worked out at 8.52 ± 1.28 mm. Further, the half-maximal inhibitory concentration (IC50) in assay [3] (average ± standard error (n = 3)) came to 18.2 ± 1.19 µM; in assay [4] it was 8.52 ± 1.28 µM. The results for the inhibition at 20 µM in assay [3] and in assay [4] were 69.2 ± 4.27% and 69.2 ± 5.27%, respectively. The “Selectivity BChE/AChE” value in assay [4] (ratio of AChE and BChE IC50) is given as 2.13.

On to `O=C1C(=O)N(Cc2cn(CCCOc3cc(=O)oc4ccccc34)nn2)c2ccc(F)cc21` [Compound 6b2, 5-fluoro-1-((1-(3-((2-oxo-2H-chromen-4-yl)oxy)propyl)-1H-1,2,3-triazol-4-yl)methyl)indoline-2,3-dione], for which, in assay [1], the zone of inhibition at 1000 µg/mL amounted to 9.33 ± 4.04 mm and the “Antibacterial activity in words” value is given as “only modest antibacterial effect”. Also, the zone of inhibition at 1000 µg/mL in assay [2] is 5.9 ± 1.09 mm. For the same compound, in assay [3], the inhibition at 20 µM came out at 44.3 ± 5.69%. Besides, in assay [4], the concentration for half-maximal inhibition (IC50) was determined as 5.9 ± 1.09 µM and the inhibition at 20 µM came out at 75.5 ± 5.69%.

`O=C1C(=O)N(Cc2cn(CCCOc3cc(=O)oc4ccccc34)nn2)c2ccc([N+](=O)[O-])cc21` [Compound 6b6, 5-nitro-1-((1-(3-((2-oxo-2H-chromen-4-yl)oxy)propyl)-1H-1,2,3-triazol-4-yl)methyl)indoline-2,3-dione]: the “Antibacterial activity in words” value in assay [1] was “largely inactive”. In addition, the inhibition at 20 µM in assay [3] is 17.9 ± 1.91%. For the same compound, in assay [4], the “BChE % of Inhibition (Conc. 20 μM)” value is on record as 5.89 ± 1.91% and the inhibition at 20 µM was < 6%.

Turning to `Cc1ccc2c(c1)C(=O)C(=O)N2Cc1cn(CCCOc2cc(=O)oc3ccccc23)nn1` [Compound 6b7, 5-methyl-1-((1-(3-((2-oxo-2H-chromen-4-yl)oxy)propyl)-1H-1,2,3-triazol-4-yl)methyl)indoline-2,3-dione], in assay [1], the “Antibacterial activity in words” value is “largely inactive”. The inhibition at 20 µM in assay [3] was determined as 24.4 ± 1.27%. In addition, the “BChE % of Inhibition (Conc. 20 μM)” value in assay [4] stood at 4.88 ± 0.27%.

Regarding `O=C1C(=O)N(Cc2cn(CCCCOc3cc(=O)oc4ccccc34)nn2)c2ccc(Cl)cc21` [Compound 6c3, 5-chloro-1-((1-(4-((2-oxo-2H-chromen-4-yl)oxy)butyl)-1H-1,2,3-triazol-4-yl)methyl)indoline-2,3-dione], in assay [1], the zone of inhibition at 1000 µg/mL is 10.7 ± 3.06 mm and the “Antibacterial activity in words” value was “only weak antibacterial activity”. Further, the inhibition at 20 µM in assay [3] worked out at 44.2 ± 3.14%. Further, the inhibition at 20 µM in assay [4] is 5.19 ± 1.14%.

As to `O=C1C(=O)N(Cc2cn(CCCCOc3cc(=O)oc4ccccc34)nn2)c2ccc(Br)cc21` [Compound 6c4, 5-bromo-1-((1-(4-((2-oxo-2H-chromen-4-yl)oxy)butyl)-1H-1,2,3-triazol-4-yl)methyl)indoline-2,3-dione], the zone of inhibition at 1000 µg/mL in assay [1] was in the range of 12 to 20 mm. The “Antibacterial activity in words” value in assay [1] is listed as “only weak antibacterial activity”. Moreover, the inhibition at 20 µM worked out at 9.84 ± 1.19% in assay [3] and 27.1 ± 2.19% in assay [4].

For the compound `O=C1C(=O)N(Cc2cn(CCCCOc3cc(=O)oc4ccccc34)nn2)c2ccc(I)cc21` [Compound 6c5, 5-iodo-1-((1-(4-((2-oxo-2H-chromen-4-yl)oxy)butyl)-1H-1,2,3-triazol-4-yl)methyl)indoline-2,3-dione], the “Antibacterial activity in words” value in assay [1] is “largely inactive”. The results for the inhibition at 20 µM in assay [3] and in assay [4] were 11.2 ± 1.64% and 22.9 ± 1.64%, respectively.

With `O=C1C(=O)N(Cc2cn(CCCCOc3cc(=O)oc4ccccc34)nn2)c2ccc([N+](=O)[O-])cc21` [Compound 6c6, 5-nitro-1-((1-(4-((2-oxo-2H-chromen-4-yl)oxy)butyl)-1H-1,2,3-triazol-4-yl)methyl)indoline-2,3-dione], in assay [1], the “Antibacterial activity in words” value was “largely inactive”. For the same compound, the inhibition at 20 µM in assay [3] is 19 ± 1.96%. In assay [4], the “BChE % of Inhibition (Conc. 20 μM)” value is recorded as 4.15 ± 0.54% and the inhibition at 20 µM is < 6%.

Consider `Cc1ccc2c(c1)C(=O)C(=O)N2Cc1cn(CCCCOc2cc(=O)oc3ccccc23)nn1` [Compound 6c7, 5-methyl-1-((1-(4-((2-oxo-2H-chromen-4-yl)oxy)butyl)-1H-1,2,3-triazol-4-yl)methyl)indoline-2,3-dione], for which, in assay [1], the “Antibacterial activity in words” value is “largely inactive”. Besides, the inhibition at 20 µM in assay [3] is 12.1 ± 1.26%. Besides, in assay [4], the “BChE % of Inhibition (Conc. 20 μM)” value was 10.32 ± 1.53% and the inhibition at 20 µM is < 11%.

On to `COc1cc2c(cc1OC)C(=O)C(CC1CCN(Cc3ccccc3)CC1)C2` (stereo not drawn) [Donepezil, donepezil, reference compound], for which the inhibition at 20 µM in assay [4] turned out to be 74.2 ± 6.17%.
